Source: PMC7230731 (Marine Drugs, 2020)

Tests used:
[1] = tested on: MCF-7 cells; experiment: Cell cycle analysis by DNA flow cytometry; format: cell-based, human; settings: IC50 concentration; for %G0-G1 / %G2/M / %S / %Sub-G1: 24 h
Description: Anticancer agents exert their cytotoxic action by aborting cellular proliferation at certain checkpoints. These checkpoints are distinguishable phases in the cell cycle, whose suppression results in termination of the cell proliferation.
The influence of bis-indoles 7e and 9a on cell cycle progression was examined in breast cancer MCF-7 cells, after 24 h of treatment, through DNA flow cytometric assay by the use of BD FACS Caliber flow cytometer, as described previously. The cell cycle distributions were calculated using CellQuest software (Becton Dickinson). […]
The two examined human breast cancer cell lines (MCF-7 and Breast MDA-MB-231), and non-tumorigenic human breast epithelial cell line (MCF-10A) have been obtained from American Type Culture Collection (ATCC). The cells were maintained in Dulbecco's modified Eagle's medium (DMEM) supplemented with 10% heat inactivated fetal calf serum (GIBCO), penicillin (100 U/ml) and streptomycin (100 µg/ml) at 37 °C in humidified atmosphere containing 5% CO2. Cells at a concentration of 0.50 x 106 were grown in a 25 cm2 flask in 5 ml of culture medium. […]
Breast cancer MCF-7 cells were treated with bis-indoles 7e and 9a for 24 h (at their IC50 concentration), and then cells were washed twice with ice-cold phosphate buffered saline (PBS). Subsequently, the treated cells were collected by centrifugation, fixed in ice-cold 70% (v/v) ethanol, washed with PBS, re-suspended with 100 μg/mL RNase, stained with 40 μg/mL PI, and analyzed by flow cytometry using FACS Calibur (Becton Dickinson, BD, Franklin Lakes, NJ, USA). The cell cycle distributions were calculated using CellQuest software 5.1 (Becton Dickinson).

[2] = tested on: Bcl-2; experiment: ELISA immunoassay, Bcl-2 level; format: cell-based, human; settings: MCF-7 cells; for Bcl-2: IC50 concentration, 48 h
Excerpt: (§1) Synchronization of the mitochondrial pathway is headed by the Bcl-2 family of proteins. These proteins are classified into two groups: anti-apoptotic proteins exemplified by Bcl-2 protein and the counteracting pro-apoptotic proteins including Bax protein [21]. As induction of the apoptotic machinery is one of the most useful strategies in cancer therapy, we investigated the effect of our compounds to boost the pro-apoptotic protein; Bax and reduce the anti-apoptotic protein; Bcl-2 in an attempt to explore the underlying mechanism for their cytotoxic activity (Table 1). […] Fortunately, both compounds markedly boosted the level of Bax by 8.3- and 6.4-fold, respectively (Table 4, Figure 3).
(§2) Effects of treatment of breast cancer MCF-7 cells with bis-indoles 7e and 9a on the expression levels of the pro-apoptotic markers (Bax, caspase-3, and p53) in addition to the anti-apoptotic protein Bcl-2 marker was assessed by the use of ELISA colorimetric kits as per the manufacturer’s instructions, as described earlier.
(§3) The levels of the pro-apoptotic markers (Bax, caspase-3 and p53) as well as the anti-apoptotic marker Bcl-2 were determined using ELISA colorimetric kits per the manufacturer’s instructions. Breast cancer MCF-7 cells were cultured as a monolayer in T-25 flasks and were seeded to attain 30% confluency prior to treatment. Cells were […]
(§4) At the end of treatment, cells were collected via trypsinization and centrifuged at 10,000 rpm. The pellet was then rinsed with PBS and lysed in RIPA lysis buffer at 4 °C for 45 min, then centrifuged at 14,000 rpm for 20 min to remove the cellular debris. Lysates were then collected and stored at −80 °C for later protein determination using Pierce BCA Protein Assay Kit according to manufacturer’s recommendations.
(§5) The cell lysate was diluted 10 times, and 100 μL ([…]) was added to the wells of four separate microtiter plates for the four ELISA kits that were pre-coated with primary antibodies specific to Bax, Bcl-2, caspase-3 and p53 proteins, respectively. A secondary biotin-linked antibody specific to the protein captured by the primary antibody was further added to bind the captured protein, forming a “sandwich” of specific antibodies around the desired protein in the cell lysate. The streptavidin-HRP complex was then used to bind the biotin-linked secondary antibody through its streptavidin portion. The HRP domain reacted with the added TMB substrate to form a colored product that measured at 450 nm by a plate reader ChroMate-4300 after the reaction was terminated via the addition of stop solution. […]

[3] = tested on: Bax/Bcl-2; experiment: Bax/Bcl-2 ratio from ELISA; format: cell-based, human; settings: MCF-7 cells; for Bax/Bcl-2: IC50 concentration, 48 h
Excerpt: as §1, §2, §3, §4, §5

[4] = tested on: MCF-7 cells; experiment: Annexin V-FITC/PI apoptosis assay; format: cell-based, human; settings: IC50 concentration; for Total (L.R % + U.R %): early + late apoptosis
Description: Annexin V-based flow cytometry analysis is a useful tool to investigate whether cell death is pertaining to physiological apoptosis or nonspecific necrosis. Evaluation of the apoptotic effect of bis-indoles 7e and 9a was carried out using AnxV-FITC/DAPI dual staining assay (Figure 4).
The apoptotic action of bis-indoles 7e and 9a was further explored through the investigation of their effect on the phosphatidylserine externalization in breast cancer MCF-7 cells, using Annexin-V-FITC Apoptosis Detection Kit according to manufacturer’s protocol, as reported earlier. […]
4. Annexin V-FITC Apoptosis Assay
Phosphatidylserine externalization was assayed using Annexin V-FITC/PI apoptosis detection kit (BD Biosciences, USA) according to the manufacturer’s instructions. Breast cancer MCF-7 cells were cultured to a monolayer then treated with bis-indoles 7e and 9a at their IC50 concentration. Briefly, cells were then harvested via trypsinization, and rinsed twice in PBS followed by binding buffer. Moreover, cells were re-suspended in 100 μL of binding buffer with the addition of 1 μL of FITC-Annexin V followed by an incubation period of 30 min at 4 °C. Cells were then rinsed in binding buffer and resuspended in 150 μL of binding buffer with the addition of 1 μL of DAPI (1 μg/μL in PBS). Cells were then analyzed using the flow cytometer BD FACS Canto II and the results were interpreted with FlowJo7.6.4 software (Tree Star, Ashland, OR, USA).

[5] = molecular target: T1, CDK2 (Homo sapiens, UniProt P24941); experiment: CDK2 kinase inhibition (Reaction Biology HotSpot); format: biochemical; settings: single dose of 10 µM, read-out: % Enzyme Inhibitory Activity
T1 construct: purchased Reaction Biology Corp. (Kinase HotSpot service)
Description: The in vitro CDK2 kinase inhibition assay was carried out by Reaction Biology Corp. (Reaction Biology Corp., Chester, PA, USA) Kinase HotSpotSM service (http://www.reactionbiology.com).
5. CDK2 kinase inhibitory activity
Reaction Biology Corp. Kinase HotSpotSM service
(http://www.reactionbiology.com) was used for screening of tested compounds. CDK2 Kinase inhibitory activity was assessed by the HotSpot assay platform, which contained specific kinase/substrate pairs along with required cofactors. Base reaction buffer:
0.1 mM Na3VO4, 2 mM DTT, 1% DMSO. Testing compounds were dissolved in 100% DMSO to specific concentration. The serial dilution was conducted by Integra Viaflo Assist in DMSO. The reaction mixture containing the examined compound and 33P-ATP was incubated at room temperature for 2 h and radioactivity was detected by filter-binding method. Kinase activity data were expressed as the percent remaining kinase activity in test samples compared to vehicle (dimethyl sulfoxide) reactions.

`O=C(Cc1c[nH]c2ccccc12)NN=C1C(=O)Nc2ccc([N+](=O)[O-])cc21` [Compound 7e, 2-(1H-Indol-3-yl)-N′-(5-nitro-2-oxoindolin-3-ylidene)acetohydrazide] was tested, and the “augmentation of proportion of cells in G2/M phase vs control” value [1] was 3 fold, the “augmentation of proportion of cells in Sub-G1 phase vs control” value [1] was 18.77 fold and the “%G0-G1” value [1] was 31.66%. For the same compound, the “%G2/M” value [1] was 42.9%, the “%S” value [1] was 25.44% and the “%Sub-G1” value [1] was 33.61%. The “decrease of Bcl-2 level vs control” value [2] was 2.25 fold, the Bcl-2 [2] was 2.07 ± 0.14 ng/mg of Total Protein and the “Bax/Bcl-2 ratio augmentation vs control” value [3] was 18.65 fold. For the same compound, the Bax/Bcl-2 [3] was 153.6, the “Early Apoptosis (Lower Right %)” value [4] was 9.56% and the “Late Apoptosis (Upper Right %)” value [4] was 21.76%. For the same compound, the “increase in total apoptosis percentage vs control” value [4] was 23.7 fold, the “Total (L.R % + U.R %)” value [4] was 31.32% and the inhibition at 10 µM [5] was 16%.

With `C=CCN1C(=O)C(=NNC(=O)Cc2c[nH]c3ccccc23)c2ccccc21` [Compound 9a, N′-(1-Allyl-2-oxoindolin-3-ylidene)-2-(1H-indol-3-yl)acetohydrazide] the “augmentation of proportion of cells in G2/M phase vs control” value [1] was 2.21 fold, the “augmentation of proportion of cells in Sub-G1 phase vs control” value [1] was 13.42 fold and the “%G0-G1” value [1] was 43.82%. For the same compound, the “%G2/M” value [1] was 31.27%, the “%S” value [1] was 24.91% and the “%Sub-G1” value [1] was 24.02%. The “decrease of Bcl-2 level vs control” value [2] was 1.74 fold, the Bcl-2 [2] was 2.67 ± 0.16 ng/mg of Total Protein and the “Bax/Bcl-2 ratio augmentation vs control” value [3] was 11.1 fold. For the same compound, the Bax/Bcl-2 [3] was 91.2, the “Early Apoptosis (Lower Right %)” value [4] was 7.01% and the “Late Apoptosis (Upper Right %)” value [4] was 15.20%. The “increase in total apoptosis percentage vs control” value [4] was 16.8 fold, the “Total (L.R % + U.R %)” value [4] was 22.21% and the inhibition at 10 µM [5] was 23%.
